Results: publication PMC11642889, “Structure-Based Screening and Optimization of PafA Inhibitors with Potent Anti-Tuberculosis Activity” (International Journal of Molecular Sciences, 2024)

Molecular target: Mtb PafA (Mycobacterium tuberculosis, UniProt P9WNU7)
Assay: fluorescent pupylation assay of PanB with 5-carboxyfluorescein-cys-Pup^E
Type: biochemical

Mtb PafA, sequence (P9WNU7 whole entry, looked up): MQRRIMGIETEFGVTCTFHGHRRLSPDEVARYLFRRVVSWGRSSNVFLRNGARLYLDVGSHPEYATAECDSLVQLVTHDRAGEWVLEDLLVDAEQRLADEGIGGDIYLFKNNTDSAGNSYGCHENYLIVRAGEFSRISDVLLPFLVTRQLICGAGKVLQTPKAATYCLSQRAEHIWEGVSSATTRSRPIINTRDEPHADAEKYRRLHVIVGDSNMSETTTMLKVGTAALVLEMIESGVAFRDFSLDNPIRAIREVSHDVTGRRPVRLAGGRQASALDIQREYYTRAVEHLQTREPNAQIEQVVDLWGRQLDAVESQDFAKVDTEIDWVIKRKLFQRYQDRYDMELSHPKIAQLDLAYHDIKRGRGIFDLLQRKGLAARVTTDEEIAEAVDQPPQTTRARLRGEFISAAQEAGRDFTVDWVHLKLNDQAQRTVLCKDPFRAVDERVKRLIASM

NS(=O)(=O)c1ccc(NC(=S)NCCc2ccc(F)cc2)cc1 [Pi-2-26] was tested, and the IC50 was 46.2 ± 7.96 nM.
